Values after ≈ are worked out from the molar mass of the structure shown.
What was measured:
[1] = Solubility of OCA in biologically relevant media at 37° C.; assay type: physicochemical; settings: for solubility: physiologically relevant dissolution media
Source text: Solubility Studies of OCA in Biological Media.

pKa = assay type: physicochemical
Plasma protein binding = assay type: in vitro ADME; settings: human
[2] = Physiologic pharmacokinetic model of OCA (population PK fit and simulations); design: species or system human
Description: Plasma levels of OCA and its conjugates were measured in healthy subjects and cirrhotic patients with varying degrees of hepatic impairment. A physiologic pharmacokinetic model for OCA was developed to quantitatively describe the absorption, distribution, metabolism, and excretion of OCA in patients with and without hepatic impairment. The model was based on a published multi-compartment PK model for CDCA, and consisted of systemic, hepatobiliary, and intestinal systems. The model was used to simulate the pathophysiological abnormalities caused by cirrhosis including decreased hepatic uptake, portal-systemic shunting, decreased liver volume, and differences in amino acid conjugation.
This examples describes development of a physiologic PK model to quantitatively describe the absorption, distribution, metabolism, and excretion of OCA. In addition, the model was used to define the effects of hepatic impairment to predict the systemic and liver exposure to OCA in subjects with various degrees of liver impairment relative to healthy subjects with normal liver function. The model was developed based on 3 studies in healthy volunteers and 2 studies in patients with varying degrees of hepatic impairment […].
Data from was used to develop the model in healthy subjects (n=160) and then adjust for hepatic impairment (n=32) using the data from the above Examples. After development, the model was validated with data sourced from healthy subjects and cirrhotic patients.
The data used in model development included subject identifiers, time of dosing and sample collection, plasma drug concentrations (OCA, glyco-OCA, and tauro-OCA), dose amount, disease status (e.g., Child-Pugh score), and meal consumption information. Study participants received standardized meals at specified times during inpatient observation. Gallbladder contraction was assumed to last 90 minutes after the start of a meal. Drug concentrations below the limit of quantification (BLQ) were imputed to half of the lower limit of quantification (LLOQ). Observed and BLQ concentrations of OCA, glyco-OCA, and tauro-OCA associated with samples drawn prior to the first dose were excluded from the analyses.
A number of structural modifications were made to the base CDCA model in order to adapt it for use with OCA. For simplification, a single space was used to represent the gut (small and large intestines). Since OCA is an exogenous molecule, it was assumed that there was no endogenous synthesis and an absorption compartment with a first-order transfer coefficient (Ka) was included to represent the administration and absorption kinetics of an oral OCA dose. Based on steric hindrance by the 6-ethyl group of OCA, no bacterial 7-alpha dehydroxylation biotransformation activity (i.e., CDCA to lithocholic acid) was included in the model. Compartment volumes in the model were fixed to physiological values from the base CDCA model. The OCA model used the physiological flow values for blood, bile and gastrointestinal transit from the original physiologic PK model for CDCA, with the exception of flows from bile duct to gallbladder and from bile duct to gut. The physiological values from the base model led to poor predictions and may not be applicable due to the simplification of the enteral system into a unified gut compartment. The biotransformation and transport rates in the model, being dependent on chemical entity structure, were estimated by fitting the model to the plasma concentration time profiles of OCA, glyco-OCA, and tauro-OCA.
The PK model was first developed using the OCA, glyco-OCA, and tauro-OCA plasma concentration time profiles from healthy volunteers with normal hepatic function. Model parameter estimates related to healthy physiology were then held constant while the PK model was further developed using OCA, glyco-OCA, and tauro-OCA plasma concentration time profiles from patients with hepatic impairment (Child-Pugh scores A, B, and C). […]

[3] = exponent on t10, model estimate
[4] = normal hepatic function, model estimate

With `CC[C@H]1[C@@H](O)[C@@H]2[C@H](CC[C@]3(C)[C@@H]([C@H](C)CCC(=O)O)CC[C@@H]23)[C@@]2(C)CC[C@@H](O)C[C@@H]12` [OCA, 3α,7α-dihydroxy-6α-ethyl-5β-cholan-24-oic acid] the “USP Solubility Rating” value ([1]; pH 1.2 (0.1N HCl)) was “Practically insoluble”, the “Solubility (mg/mL)” value ([1]; pH 1.2 (0.1N HCl), 37° C.) was “<LOQ” and the “USP Solubility Rating” value ([1]; pH 1.2 (FaSSGF)) was “Practically insoluble”. For the same molecule, the “Solubility (mg/mL)” value ([1]; pH 1.2 (FaSSGF), 37° C.) was “<LOQ”, the “USP Solubility Rating” value ([1]; pH 4.5) was “Practically insoluble” and the “Solubility (mg/mL)” value ([1]; pH 4.5, 37° C.) was “<LOQ”. The “USP Solubility Rating” value ([1]; pH 5.0 (FeSSIF)) was “Freely soluble”, the “increase in OCA solubility” value ([1]; pH 5.0 with taurocholate and lecithin (FeSSIF) vs. pH 5.1 acetate buffer alone) was 35 fold and the “USP Solubility Rating” value ([1]; pH 6.5 (FaSSIF)) was “Freely soluble”. The “USP Solubility Rating” value ([1]; pH 6.8) was “Freely soluble”, the “USP Solubility Rating” value ([1]; pH 6.8 with surfactant) was “Freely soluble” and the solubility ([1]; aqueous buffer, pH 6.8 (proposed dissolution medium, sodium phosphate dibasic), 37° C.) was 220 µg/mL (≈ 523 µM). The solubility ([1]; aqueous with cosolvent or surfactant or cyclodextrin, pH 6.8 with surfactant (polysorbate 80), 37° C.) was 590 µg/mL (≈ 1400 µM), the solubility ([1]; pH 5.0 (FeSSIF), 37° C.) was 820 µg/mL (≈ 1950 µM) and the solubility ([1]; pH 6.5 (FaSSIF), 37° C.) was 640 µg/mL (≈ 1520 µM). For the same molecule, the pKa (pKa) was 4.82, the fraction unbound (Plasma protein binding) was under 0.01 and the “Effect in Mild hepatic impairment in hepatic uptake of OCA and conjugates” value [2, 3] was −0.132. The “Effect in Moderate hepatic impairment in hepatic uptake of OCA and conjugates” value [2, 3] was −1.86, the “Effect in Severe hepatic impairment in hepatic uptake of OCA and conjugates” value [2, 3] was −2.37 and the “Effect of Mild hepatic impairment on OCA tauro-conjugation” value ([2]; exponent, model estimate) was 0.00481. The “Effect of Moderate hepatic impairment on OCA tauro-conjugation” value ([2]; exponent, model estimate) was 1.05, the “Effect of Severe hepatic impairment on OCA tauro-conjugation” value ([2]; exponent, model estimate) was 1.56 and the “Ka: OCA first order rate constant of oral absorption” value [2, 4] was 5.32 h⁻¹. For the same molecule, the “b16: OCA rate of conjugation with glycine” value [2, 4] was 1.44 h⁻¹, the “b18: OCA rate of conjugation with taurine” value [2, 4] was 0.312 h⁻¹ and the “kout: Rate of fecal elimination of OCA” value [2, 4] was 0.612 L/h. For the same molecule, the “t10: OCA transport rate from liver to sinusoidal space” value [2, 4] was 1698 h⁻¹ and the “t34: OCA rate of absorption from gut to portal space” value [2, 4] was 0.857 h⁻¹.

— patent US10758549B2, “Compositions of obeticholic acid and methods of use” (Intercept Pharmaceuticals, Inc., priority 2015, dated 2020)
